Experimental data as given in patent US20220362386A1, “LIQUID COMPOSITIONS COMPRISING A LEVODOPA AMINO ACID CONJUGATE AND USES THEREOF” (NeuroDerm, Ltd., priority 2019, published 2022).
Where a name gives a salt, the structure may show the parent alone. Read-outs that look alike come from different tables or passages of the source. Non-standard residues stand in square brackets, D forms with d. Residues, ends and D or L forms follow the SMILES beside them. Dopa = N[C@@H](Cc1ccc(O)c(O)c1)C(=O)O

Tests used:
[1] = 0 weeks
Protocol: (§5) It is noted that the recovery % compared the amount of any given material as measured at t=28 h (or any other presented value) compared to the amount of that material, at measured at t=0.

[2] = Analytical stability of LD-Tyr/CD formulations by HPLC (Tables 42-45c); settings: for Analytical stability result (HPLC), t = 1 week / Analytical stability result (HPLC), t = 2 weeks: in mg/mL (unit assumed)
Protocol: as §5

human plasma = experiment: Protein binding, solid phase extraction (SPE) method; format: in vitro ADME; settings: 1.0E−05M; SPE sample preparation
Protocol: (§1) A solid phase extraction (SPE) method was used to prepare samples for several compounds in the plasma protein binding assay. The following SPE protocols were followed:
(§2) Sorbent: Waters Oasis MCX 96—well MicroElution Plate—Cat #186001830BA Sample: 200 μL of plasma spiked at 10 μM with test compound. Sample was diluted 1:1 with 4% phosphoric acid in water and mixed for 15 minutes 1) Place Oasis plate on vacuum manifold and set vacuum to 5″ Hg; 2) Condition with 200 μL methanol; 3) Equilibrate with 200 μL water; 4) Load dilute plasma sample; 5) Wash with 200 μL 2% formic acid in water; 6) Wash with 400 μL methanol; and 7) Elute with 100 μL 5% NH4OH in methanol.
as §2, with “MAX 96-well” for “MCX 96—well”, “plate—Cat #186001829” for “Plate—Cat #186001830BA”, “5% NH4OH” for “2% formic acid”, “2% formic acid” for “5% NH4OH”

[3] = as above; format: in vitro ADME, human; settings: human, human plasma, 1.0E−05M, SPE sample preparation
Protocol: as §1, §2
as §2, with “MAX 96-well” for “MCX 96—well”, “plate—Cat #186001829” for “Plate—Cat #186001830BA”, “5% NH4OH” for “2% formic acid”, “2% formic acid” for “5% NH4OH”

physchem = format: physicochemical
Protocol: The volume of the solution in the bottle was adjusted to 5 ml, either by adding solvent, or be removing any residual solution, after which the bottle was tightly closed and left at 25° C. for stability observation. It is noted that throughout Example 4, the concentrations in the tables below were calculated taking into account the amount of solvent added or the solution removed, in which event, the calculations were performed regarding the 5 ml+(amount removed) as the volume of the solution. It is further noted that throughout this document, unless mentioned otherwise, the stability was measured using the manual visual inspection Bosch apparatus MIH DX, at a magnification of ×1.75.
(§3) The LD-Tyr free base, prepared according to Example 2, was added to a solvent, as detailed in Table 7 below, and neutralized by addition of NaOH. When maximum solubility was observed, the solution was filtered and then transferred to a bottle that was previously weighed and flushed with nitrogen. The volume of the solution in the bottle was adjusted to 5 ml, after which the bottle was tightly closed and left at 25° C. for stability observation.
(§4) When maximum solubility was observed, the solution was filtered and then transferred to a bottle that was previously weighed and flushed with nitrogen. The volume of the solution in the bottle was adjusted to 5 ml, after which the bottle was tightly closed and left at 25° C. for stability observation.
as §4, with “stored” for “left”
as §4, with “stored” for “left”
as §3, with “LD-Lys TFA salt,” for “The LD-Tyr free base,”, “1, and which comprises two equivalents of TFA,” for “2,”, “11” for “7”, “stored” for “left”
as §4, with “As detailed above regarding other solutions, with the LD-Tyr free base when” for “When”
as §3, with “LD-Lys HCl salt,” for “The LD-Tyr free base,”, “3,” for “2,”, “13” for “7”, “by the” for “by”

[4] = Stability observation of the solubility solutions at 25° C. (visual inspection for precipitants); format: physicochemical
Protocol: The volume of the solution in the bottle was adjusted to 5 ml, either by adding solvent, or be removing any residual solution, after which the bottle was tightly closed and left at 25° C. for stability observation. […] It is further noted that throughout this document, unless mentioned otherwise, the stability was measured using the manual visual inspection Bosch apparatus MIH DX, at a magnification of ×1.75.

[5] = Human blood stability test; format: in vitro ADME; settings: slope of the percentage decrease of remaining compound; substrate 10 μM; 0-60 minutes
Protocol: The stability of several LDAA compounds in human blood was tested. The substrate concentration was 10 μM and the incubation time 0, 5, 15, 30 and 60 minutes.
The results are described in Table 19, wherein the results describe the Ke, i.e., the slope of the percentage decrease of the remaining amount of the compound, measured at each of the above time points, such that the higher the Ke the faster the metabolism.

[6] = Human liver S9 stability test; format: in vitro ADME; settings: slope of the percentage decrease of remaining compound; substrate 10 μM; S9 protein 0.2 mg/mL; 0-60 minutes
Protocol: The stability of several LDAA compounds, in their TFA salt form, in human liver S9 was tested using commercially available liver S9. The substrate concentration was 10 μM, the S9 protein concentration was 0.2 mg/mL, and the incubation time 0, 5, 15, 30 and 60 minutes.
The results are described in Table 18, wherein the results describe the Ke, i.e., the slope of the percentage decrease of the remaining amount of the compound, measured at each of the above time points, such that the higher the Ke the faster the metabolism.

[7] = NB 144-4 formulation, Storage temp. 2-8° C.
[8] = NB 144-4 formulation, Storage temp. 25° C.
[9] = NB 144-4 formulation, Storage temp. 40° C.
[10] = NB 144-32 (F1), 37% LD-Tyr/0.5% CD
[11] = NB 144-34 (F2), 44% LD-Tyr/0.5% CD
[12] = NB 144-39 (F3), 30% LD-Tyr/0.5% CD
[13] = 0.75% CD solution, pH 8.5, 240 mg/ml salt

## C[C@@](Cc1ccc(O)c(O)c1)(NN)C(=O)O [CD]
[1]
  Analytical stability result (HPLC), t = 0: 7.37
[2]; NB 144-4 formulation (30% LD-Tyr/0.75% CD), Storage temp. 2-8° C.
  Analytical stability result (HPLC), t = 0: 7.37
[2]; [7]
  % retention, t = 1 week: 99.9%
  Analytical stability result (HPLC), t = 1 week: 7.36
  % retention, t = 2 weeks: 99.1%
  Analytical stability result (HPLC), t = 2 weeks: 7.30
[2]; [8]
  % retention, t = 1 week: 99.3%
  Analytical stability result (HPLC), t = 1 week: 7.32
  % retention, t = 2 weeks: 100.5%
  Analytical stability result (HPLC), t = 2 weeks: 7.41
[2]; [9]
  Analytical stability result (HPLC), t = 0: 7.37
  % retention, t = 1 week: 98.5%
  Analytical stability result (HPLC), t = 1 week: 7.26
[2]; [10]
  Concentration (HPLC), t = 0: 4.78
  Concentration (HPLC), t = 28 h at 32° C.: 4.77
[2]; [11]
  Concentration (HPLC), t = 0: 4.84
  Concentration (HPLC), t = 28 h at 32° C.: 4.78
[2]; [12]
  Concentration (HPLC), t = 0: 4.86
  Concentration (HPLC), t = 28 h at 32° C.: 4.74

## N[C@@H](Cc1ccc(O)c(O)c1)C(=O)N[C@@H](CCC(=O)O)C(=O)O [LD-Glu TFA salt, Levodopa Glutamic Acid TFA Salt] (H-[Dopa]-Glu-OH)
Human plasma
  % Protein Bound 1st: 36.6%
  % Protein Bound 2nd: 49.4%
  % Protein Bound Mean: 43%
[3]; read-out: % Recovery 1st
  recovery at 10 μM: 110%
[3]; read-out: % Recovery 2nd
  recovery at 10 μM: 115%
[3]; read-out: % Recovery Mean
  recovery at 10 μM: 112%

## NCCCC[C@H](NC(=O)[C@@H](N)Cc1ccc(O)c(O)c1)C(=O)O [LD-Lys HCl salt] (H-[Dopa]-Lys-OH)
physchem; 0.75% CD solution, pH 6.46, 240 mg/ml salt
  Appearance: Clear
physchem; [13]
  Appearance: Clear
physchem; 25 °C, aqueous buffer, thermodynamic from solid, solvent WFI, pH 6.51, HCl counter-ion, read-out: LD-Lys TFA salt concentration
  solubility thermodynamic: 350 mg/mL
physchem; WFI, pH 6.51, 350 mg/ml salt
  Appearance: Clear
physchem; solvent 0.75% CD solution, pH 6.46
  LD-Lys free base Concentration: 200 mg/mL
physchem; solvent 0.75% CD solution, pH 6.46, HCl counter-ion
  LD-Lys TFA salt concentration: 240 mg/mL
physchem; solvent 0.75% CD solution, pH 8.5
  LD-Lys free base Concentration: 200 mg/mL
physchem; solvent 0.75% CD solution, pH 8.5, HCl counter-ion
  LD-Lys TFA salt concentration: 240 mg/mL
physchem; solvent WFI, pH 6.51
  LD-Lys free base Concentration: 290 mg/mL
[4]; [13]
  Stability: Precipitated* (precipitated within 12 hours at room temperature)
[4]; WFI, pH 6.51, 350 mg/ml salt
  Stability: Stable (physically stable for at least 12 hours)

## NC(=O)[C@@H](N)Cc1ccc(O)c(O)c1 [LDA (levodopa amide), levodopa amide, reference compound]
[5]
  Ke: 0.0149
[6]
  Ke: −0.0008
